{"source": "patent EP3431468B1", "about": "“USE OF ADIPONECTIN RECEPTOR AGONISTS IN TREATING DEPRESSION, ANXIETY AND NEUROINFLAMMATION” (CENTRE NATIONAL DE LA RECHERCHE SCIENTIFIQUE, priority 2017, dated 2019)", "test_system": "wt and depression-like mouse models", "experiment": "Forced Swimming test (FST), acute administration", "format": "in vivo", "settings": "LPS-treated mice (0.83 mg/kg LPS), 1mg/kg ip", "experimental": "Three well-established mouse models of depression-like behavior have been used in the present study namely i- the long-term corticosterone treatment in the drinking water (David, Samuels et al. 2009), ii- the peripheral administration of LPS (O'Connor, Lawson et al. 2009) iii- the ApN^-/- mice (Liu, Guo et al. 2012). For chronic AdipoRon treatment, the experimental protocol was as followed: • i- Five weeks old male mice (five/cage) received corticosterone (35mg/L dissolved in tap water containing 4 g/L CD) or vehicle alone ad libitum for during 7 consecutive weeks (David, Samuels et al. 2009). Corticosterone and vehicle solutions were changed every 3 days to prevent possible degradation. […]\nAll behavioral testing were conducted during the light phase (between 09:00 and 14:00 am) in compliance with the Institutional Animal Care and Use Committee of the University of Nice-Sophia Antipolis (permission number 010344.01 from the French \"Ministère de l'Enseignement Supérieur et de la Recherche\" granted to Dr. Joëlle Chabry). • Forced Swimming test (FST) - Mice were placed an inescapable transparent tank (20cm diameter, 30cm deep) filled with water (23°C ± 0.5) for six minutes as previously described by Porsolt et al. (1977). […] To initiate testing, mice were placed into the light side and activity was recorded for 5 minutes. […]"}
{"molecule": "O=C(COc1ccc(C(=O)c2ccccc2)cc1)NC1CCN(Cc2ccccc2)CC1", "note": "[AdipoRon, 2-(4-Benzoylphenoxy)-N-[1-(phenylmethyl)-4-piperidinyl]-acetamide]", "values": [{"measurement": "immobility time in the FST", "value": "significantly to reducing this parameter"}]}
